Measurements taken from article PMC8153216 (Chemical Science, 2021).

System: Coxsackievirus B3 (CVB3)
Assay: Anti Coxsackie B3 activity assay
Type: cell-based, Coxsackie viruse B3 (Nancy strain)
Conditions: CVB3 in Vero cells

| Compound | SI (TC50/IC50) |
| --- | --- |
| Cc1cc(CCCOc2c(C)cc(-c3noc(C(F)(F)F)n3)cc2C)on1 [Pleconaril] | 14045.1 |
| NC(=O)c1ncn([C@@H]2O[C@H](CO)[C@@H](O)[C@H]2O)n1 [Ribavirin] | 5.2 |
